Read-outs that look alike come from different tables or passages of the source.
Assays:
Assay type in all cases: in vivo
[1] = test system: Green Peach Aphid (Myzus persicae, MYZUPE) ("GPA"); assay: Bioassay on Green Peach Aphid (GPA), foliar spray on cabbage seedlings; settings: 72 h, read-out: GPA % Control (or Mortality) rating
Description: Certain molecules disclosed in this document were tested against GPA using procedures described in the following example. In the reporting of the results, the “GPA Rating Table” was used (See Table Section).
Cabbage seedlings grown in 3-inch pots, with 2-3 small (3-5 cm) true leaves, were used as test substrate. The seedlings were infested with 20-50 GPA (wingless adult and nymph stages) one day prior to chemical application. Four pots with individual seedlings were used for each treatment. Test compounds (2 mg) were dissolved in 2 mL of acetone/methanol (1:1) solvent, forming stock solutions of 1000 ppm test compound. The stock solutions were diluted 5× with 0.025% Tween 20 in water to obtain the solution at 200 ppm test compound. A hand-held aspirator-type sprayer was used for spraying a solution to both sides of […] leaves until runoff. Reference plants (solvent check) were sprayed with the diluent only containing 20% by volume of acetone/methanol (1:1) solvent. Treated plants were held in a holding room for three days at approximately 25° C. and ambient relative humidity (RH) prior to grading. Evaluation was conducted by counting the number of live aphids per plant under a microscope. Percent Control was measured by using Abbott's correction formula (W. S. Abbott, “A Method of Computing the Effectiveness of an Insecticide” J. Econ. Entomol. 18 (1925), pp. 265-267) as follows. Corrected % Control=100*(X−Y)/X • where • X=No. of live aphids on solvent check plants and • Y=No. of live aphids on treated plants

[2] = test system: Cabbage Looper (Trichoplusia ni, TRIPNI) ("CL"); assay: Bioassay on Cabbage Looper (CL), 128-well diet tray assay; settings: 168 h, read-out: CL % Control (or Mortality) rating
Description: (§1) Certain molecules disclosed in this document were tested against BAW and CEW using procedures described in the following examples. In the reporting of the results, the “BAW & CL Rating Table” was used (See Table Section).
Bioassays on CL were conducted using a 128-well diet tray assay. one to five second instar CL larvae were placed in each well (3 mL) of the diet tray that had been previously filled with 1 mL of artificial diet to which 50 μg/cm^2 of the test compound (dissolved in 50 μL of 90:10 acetone-water mixture) had been applied (to each of eight wells) and then allowed to dry. Trays were covered with a clear self-adhesive cover and held at 25° C., 14:10 light-dark for five to seven days. Percent mortality was recorded for the larvae in each well; activity in the eight wells was then averaged. The results are indicated in the table entitled “Table ABC: Biological Results” (See Table Section).

[3] = test system: Beet Armyworm (Spodoptera exigua, LAPHEG) ("BAW"); assay: Bioassay on Beet Armyworm (BAW), 128-well diet tray assay; settings: 168 h, read-out: BAW % Control (or Mortality) rating
Description: as §1
Bioassays on BAW were conducted using a 128-well diet tray assay. one to five second instar BAW larvae were placed in each well (3 mL) of the diet tray that had been previously filled with 1 mL of artificial diet to which 50 μg/cm^2 of the test compound (dissolved in 50 μL of 90:10 acetone-water mixture) had been applied (to each of eight wells) and then allowed to dry. Trays were covered with a clear self-adhesive cover and held at 25° C., 14:10 light-dark for five to seven days. Percent mortality was recorded for the larvae in each well; activity in the eight wells was then averaged. The results are indicated in the table entitled “Table ABC: Biological Results” (See Table Section).

[4] = test system: Yellow Fever Mosquito (Aedes aegypti, AEDSAE) ("YFM"); assay: Bioassay on Yellow Fever Mosquito (YFM), 96-well plate larval assay; settings: about 1 day-old larvae, from 4000 ppm master plate, scored on mortality after 3 days
Description: Certain molecules disclosed in this document were tested against YFM using procedures described in the following paragraph. In the reporting of the results, the “YFM Rating Table” was used (See Table Section).
Master plates containing 400 μg of a molecule dissolved in 100 μL of dimethyl sulfoxide (DMSO) (equivalent to a 4000 ppm solution) are used. A master plate of assembled molecules contains 15 μL per well. To this plate, 135 μL of a 90:10 water:acetone mixture is added to each well. A robot (Biomek® NXP Laboratory Automation Workstation) is programmed to dispense 15 μL aspirations from the master plate into an empty 96-well shallow plate (“daughter” plate). There are 6 reps (“daughter” plates) created per master. The created daughter plates are then immediately infested with YFM larvae.
The day before plates are to be treated, mosquito eggs are placed in Millipore water containing liver powder to begin hatching (4 g. into 400 mL). After the daughter plates are created using the robot, they are infested with 220 μL of the liver powder/larval mosquito mixture (about 1 day-old larvae). After plates are infested with mosquito larvae, a non-evaporative lid is used to cover the plate to reduce drying. Plates are held at room temperature for 3 days prior to grading. After 3 days, each well is observed and scored based on mortality.

[5] = 200 ppm foliar spray on cabbage seedlings, three days, Abbott corrected % control
[6] = 50 μg/cm^2 on artificial diet, second instar larvae, five to seven days, 25° C., average of eight wells

SMILES	mortality at 200 ppm [1, 5] [%]	mortality at 50 µg/cm2 [2] [%]	mortality at 50 µg/cm2 [3, 6] [%]	YFM % Control (or Mortality) rating [4]	mortality at 200 ppm ([1]; foliar) [%]	mortality at 50 µg/cm2 [3] [%]
Cc1cccc(C)c1Nc1ccccc1C(=O)Nc1ccc(-c2ncn(-c3ccc(OC(F)(F)F)cc3)n2)cc1 [F1, 2-((2,6-dimethylphenyl)amino)-N-(4-(1-(4-(trifluoromethoxy)phenyl)-1H-1,2,4-triazol-3-yl)phenyl)benzamide]	0 to 80	0	0			
COc1cccc(C(=O)Nc2ccc(-c3ncn(-c4ccc(OC(F)(F)C(F)(F)F)cc4)n3)cc2)c1 [F14, 3-Methoxy-N-(4-(1-(4-(perfluoroethoxy)phenyl)-1H-1,2,4-triazol-3-yl)phenyl)benzamide]	0	50 to 100	50 to 100	A (80-100)		
Cc1cccc(C)c1Nc1ccccc1C(=O)Nc1ccc(-c2ncn(-c3ccc(C(F)(F)F)cc3)n2)cc1 [F2, 2-((2,6-Dimethylphenyl)amino)-N-(4-(1-(4-(trifluoromethyl)phenyl)-1H-1,2,4-triazol-3-yl)phenyl)benzamide]		0			0 to 80	0
O=C(Nc1ccc(-c2ncn(-c3ccc(OC(F)(F)F)cc3)n2)cc1)c1cccc(Oc2ccccc2)c1 [F5, 3-Phenoxy-N-(4-(1-(4-(trifluoromethoxy)phenyl)-1H-1,2,4-triazol-3-yl)phenyl)benzamide]		50 to 100	0	D (No activity noticed in this bioassay)		
O=C(NCc1ccc(-c2ncn(-c3ccc(OC(F)(F)F)cc3)n2)cc1)c1ccccc1 [F32, N-(4-(1-(4-(trifluoromethoxy)phenyl)-1H-1,2,4-triazol-3-yl)benzyl)benzamide]		0	0	D (No activity noticed in this bioassay)		
O=C(Nc1ccc(-c2ncn(-c3ccc(OC(F)(F)F)cc3)n2)cc1)c1ccc(Oc2ccccc2)cc1 [F6, 4-Phenoxy-N-(4-(1-(4-(trifluoromethoxy)phenyl)-1H-1,2,4-triazol-3-yl)phenyl)benzamide]		50 to 100	50 to 100	D (No activity noticed in this bioassay)		
O=C(Nc1ccc(-c2ncn(-c3ccc(OC(F)(F)F)cc3)n2)cc1)c1ccccc1Oc1ccccc1 [F4, 2-Phenoxy-N-(4-(1-(4-(trifluoromethoxy)phenyl)-1H-1,2,4-triazol-3-yl)phenyl)benzamide]		50 to 100	50 to 100	D (No activity noticed in this bioassay)		
Cc1ccc(-c2ccccc2C(=O)NCc2ccc(-c3ncn(-c4ccc(OC(F)(F)F)cc4)n3)cc2)c(C)c1 [F33, 2′,4′-Dimethyl-N-(4-(1-(4-(trifluoromethoxy)phenyl)-1H-1,2,4-triazol-3-yl)benzyl)biphenyl-2-carboxamide]		50 to 100	0 to 50	A (80-100)		
O=C(NCc1ccc(-c2ncn(-c3ccc(OC(F)(F)F)cc3)n2)cc1)c1ccccc1-c1ccccc1 [F27, N-(4-(1-(4-(Trifluoromethoxy)phenyl)-1H-1,2,4-triazol-3-yl)benzyl)biphenyl-2-carboxamide]		50 to 100	0 to 50	B (More than 0 - Less than 80)		
O=C(Nc1ccc(-c2ncn(-c3ccc(OC(F)(F)C(F)(F)F)cc3)n2)cc1)c1cccc(Oc2ccccc2)c1 [F9, N-(4-(1-(4-(perfluoroethoxy)phenyl)-1H-1,2,4-triazol-3-yl)phenyl)-3-phenoxybenzamide]		0	0	D (No activity noticed in this bioassay)		
Cc1cc(F)ccc1-c1ccccc1C(=O)NCc1ccc(-c2ncn(-c3ccc(OC(F)(F)F)cc3)n2)cc1 [F40, 4′-Fluoro-2′-methyl-N-(4-(1-(4-(trifluoromethoxy)phenyl)-1H-1,2,4-triazol-3-yl)benzyl)biphenyl-2-carboxamide]		50 to 100	50 to 100	D (No activity noticed in this bioassay)		
O=C(Nc1ccc(-c2ncn(-c3ccc(OC(F)(F)F)cc3)n2)cc1)c1ccccc1Cc1ccccc1 [F3, 2-benzyl-N-(4-(1-(4-(trifluoromethoxy)phenyl)-1H-1,2,4-triazol-3-yl)phenyl)benzamide]		50 to 100	50 to 100	D (No activity noticed in this bioassay)		
CC(C)c1ccccc1C(=O)NCc1ccc(-c2ncn(-c3ccc(OC(F)(F)F)cc3)n2)cc1 [F31, 2-Isopropyl-N-(4-(1-(4-(trifluoromethoxy)phenyl)-1H-1,2,4-triazol-3-yl)benzyl)benzamide]		0	0	D (No activity noticed in this bioassay)		
COc1ccc(-c2ccccc2C(=O)NCc2ccc(-c3ncn(-c4ccc(OC(F)(F)F)cc4)n3)cc2)c(C)c1 [F38, 4′-Methoxy-2′-methyl-N-(4-(1-(4-(trifluoromethoxy)phenyl)-1H-1,2,4-triazol-3-yl)benzyl)biphenyl-2-carboxamide]		0	0	D (No activity noticed in this bioassay)		
COc1ccc(C(=O)Nc2ccc(-c3ncn(-c4ccc(OC(F)(F)F)cc4)n3)cc2)cc1 [F26, 4-Methoxy-N-(4-(1-(4-(trifluoromethoxy)phenyl)-1H-1,2,4-triazol-3-yl)phenyl)benzamide]		50 to 100	50 to 100	D (No activity noticed in this bioassay)		
COc1ccccc1C(=O)Nc1ccc(-c2ncn(-c3ccc(OC(F)(F)C(F)(F)F)cc3)n2)cc1 [F12, 2-Methoxy-N-(4-(1-(4-(perfluoroethoxy)phenyl)-1H-1,2,4-triazol-3-yl)phenyl)benzamide]		50 to 100	0	D (No activity noticed in this bioassay)		
Cc1ccc(C)c(-c2ccccc2C(=O)NCc2ccc(-c3ncn(-c4ccc(OC(F)(F)F)cc4)n3)cc2)c1 [F35, 2′,5′-Dimethyl-N-(4-(1-(4-(trifluoromethoxy)phenyl)-1H-1,2,4-triazol-3-yl)benzyl)biphenyl-2-carboxamide]		50 to 100	0 to 50	B (More than 0 - Less than 80)		
CCOc1ccccc1Oc1ccccc1C(=O)Nc1ccc(-c2ncn(-c3ccc(OC(F)(F)F)cc3)n2)cc1 [F17, 2-(2-Ethoxyphenoxy)-N-(4-(1-(4-(trifluoromethoxy)phenyl)-1H-1,2,4-triazol-3-yl)phenyl)benzamide]		0	0 to 50	D (No activity noticed in this bioassay)		
